Test results as given in ChEMBL document CHEMBL1275254 (2010).

Tested on: Burkholderia pseudomallei
Assay: Antimicrobial activity against Burkholderia pseudomallei Bp227 harboring deleted (bpeAB-oprA)::FRT gene after 24 hrs by broth microdilution method
Format: functional

GENTAMICIN was tested, and the MIC was 256 µg/mL.
